Laboratory results taken from PubChem BioAssay (NCI).
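Five compound concentrations were applied to cells in 96-well plates for 48 hours; endpoints were derived by simple linear interpolation of the resulting dose-response curve. The concentration for 50% growth inhibition is given as GI50. TGI denotes the concentration required for complete inhibition of growth.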

Legend:
Assay in all cases: inhibition of tumour cell growth, NCI panel, 48 h
PC-3 prostate = system: PC-3 prostate
LOX IMVI melanoma = system: LOX IMVI melanoma
SR leukemia = system: SR leukemia
NCI/ADR-RES ovarian = system: NCI/ADR-RES ovarian
HL-60(TB) leukemia = system: HL-60(TB) leukemia
CAKI-1 renal = system: CAKI-1 renal
RPMI-8226 leukemia = system: RPMI-8226 leukemia
NCI-H226 lung = system: NCI-H226 lung
CCRF-CEM leukemia = system: CCRF-CEM leukemia
HT29 colon = system: HT29 colon

| SMILES | GI50 (PC-3 prostate) [µM] | TGI (PC-3 prostate) [µM] | GI50 (LOX IMVI melanoma) [µM] | TGI (LOX IMVI melanoma) [µM] | GI50 (SR leukemia) [µM] | TGI (SR leukemia) [µM] | GI50 (NCI/ADR-RES ovarian) [µM] | TGI (NCI/ADR-RES ovarian) [µM] | GI50 (HL-60(TB) leukemia) [µM] | TGI (HL-60(TB) leukemia) [µM] | GI50 (CAKI-1 renal) [µM] | TGI (CAKI-1 renal) [µM] | GI50 (RPMI-8226 leukemia) [µM] | TGI (RPMI-8226 leukemia) [µM] | GI50 (NCI-H226 lung) [µM] | TGI (NCI-H226 lung) [µM] | GI50 (CCRF-CEM leukemia) [µM] | TGI (CCRF-CEM leukemia) [µM] | GI50 (HT29 colon) [µM] | TGI (HT29 colon) [µM] |
| --- | --- | --- | --- | --- | --- | --- | --- | --- | --- | --- | --- | --- | --- | --- | --- | --- | --- | --- | --- | --- |
| C#CCOC(=O)/C=C/C(=O)Oc1ccc2c(C)cc(=O)oc2c1 | > 100 | > 100 | > 100 | > 100 | > 100 | > 100 | > 100 | > 100 | > 100 | > 100 | > 100 | > 100 | > 100 | > 100 | > 100 | > 100 | > 100 | > 100 | > 100 | > 100 |
| CC(C)=Cc1cccc2[nH]c(O)c(N=Nc3ccc(S(N)(=O)=O)cc3)c12 | 6.2 | > 25 | 2.67 | > 25 | 0.593 | > 25 | > 23.4 | > 25 | 3.37 | > 25 | 1.69 | > 25 | 8.16 | > 25 | > 6.16 | > 25 | 1.23 | > 25 | 3.36 | > 25 |
| CC[C@H]1CCC/C=C/[C@@H]2C[C@H](O)C[C@H]2[C@H](O)/C=C/C(=O)O1 | 0.0517 | > 100 | 0.0251 | 0.0793 | 0.0292 | 0.115 | 0.0379 | > 45.3 | 0.0669 | 0.473 | 0.0444 | > 100 | 0.0387 | 12.5 | 0.0197 | 0.0424 | 0.0455 | > 100 | 0.0264 | 0.405 |
| CCN1C(=O)N(CC)C2C1NN=c1s/c(=C\c3ccc(C(F)(F)F)cc3)c(=O)n12 (stereo unspecified) | 0.385 | > 41.1 | 0.483 | > 34.6 | 0.204 | 5.77 | 0.291 |  | 0.245 | 0.609 | 0.328 | 36.4 | 0.389 | 8.67 | 1.14 | > 24.8 | 0.328 | 17 | 0.352 | 11.8 |
| COc1cc2c(c(OC)c1OC)-c1c(c3ccc([N+](=O)[O-])cc3c(=O)n1CCCBr)C2=O | 26.3 | > 100 | 31.9 | > 100 | 4.37 | > 100 | 70.6 | > 100 |  |  | 13.4 | 61.3 | 35 | > 100 | 13.5 | 68.5 | 14.8 | > 100 | > 100 | > 100 |
| FC(F)(F)c1nc(SCc2ccc(Cl)cc2)n[nH]1 |  | > 100 |  | > 100 |  | > 100 |  | > 100 |  | > 100 |  | > 100 |  | > 100 |  | > 100 |  |  |  | > 100 |
| NNc1nc2ccccc2o1 |  | > 100 |  | > 100 |  | > 100 |  | > 100 |  | > 100 |  | > 100 |  | > 100 |  | > 100 |  | > 100 |  | > 100 |
| CCc1[nH]nc(C(N)=O)c1N=NN(C)C |  | > 100 |  | > 100 |  | 38.9 |  | > 100 |  | > 100 |  | > 100 |  | > 100 |  | > 100 |  | > 100 |  | > 100 |
| CCCCC(OC(=O)c1ccc(N)cc1)C(=O)Nc1nc(CC(=O)OCC)cs1 (stereo unspecified) | 42.4 | > 100 | 39 | > 100 | 42.8 | > 100 | 33.9 | > 100 | 35.1 | 95.1 | 39.1 | > 100 | 26.7 | > 100 | 43.5 | > 100 |  |  | 36.7 | > 100 |
| O=c1cc(-c2ccccc2)oc2c1ccc1ccccc12 | 23.1 | > 100 | 21.9 | > 100 |  |  | 30.5 | > 100 | 23.9 | 56.8 | 18 | > 100 | 21.7 | 70.2 | 18.9 | 59.5 | 22.8 | 73.8 | 25.6 | > 100 |
| Fc1ccc(-c2ncn(CCCN3CCOCC3)c2-c2ccncc2)cc1 | > 25 | > 25 | > 25 | > 25 | > 25 | > 25 | > 25 | > 25 | > 25 | > 25 | > 25 | > 25 | > 25 | > 25 | > 25 | > 25 | > 25 | > 25 | > 25 | > 25 |
| C#Cc1cccc(NC(=O)c2cccc(NC(=O)CCl)c2)c1 | 18.9 | 70.7 | 8.87 | 21.7 | 4.79 | 43.1 | 17.3 | 53.1 | 13.2 | 39.7 | 31.5 | > 82.5 | 17.3 | 59.3 | 19.8 | 59.4 | 7.29 | 54.5 | 8.18 | 33.4 |
| Cc1ccc2[nH]c(O)c(N=Nc3ccccc3[N+](=O)[O-])c2c1 |  | > 100 |  | > 100 |  | 32.6 |  | > 40.2 |  | > 100 |  | > 100 |  | > 100 |  | 47.5 |  | > 100 |  | > 100 |
| O=C(O)CN1C(=O)CN=C(c2ccccn2)c2cc(Cl)ccc21 |  | > 100 |  | > 100 |  | > 100 |  | > 100 |  | 22.9 |  | > 100 |  | > 100 |  | > 100 |  |  |  | > 100 |
| O=C(Nc1ccccc1Cl)c1ccc(NC2=C(Cl)C(=O)N(C3CCCCC3)C2=O)cc1 | 13.6 | 45.5 | 1.68 | 20.9 | 3.03 | 7.87 | 29.3 | 82.8 | 3.38 | 8.48 | 22.9 | 56.5 | 7.35 | 34.2 | 9.4 | 31.8 | 8.29 | 33.5 | 10.8 | 30 |
